The record followed here is patent US20250101038A1, “COMPOUNDS” (priority 2021, published 2025).

The structures appear in SMILES notation.

In this assay the test system is ARS-TST mouse model of depression. Description: Acute restraint stress tail suspension test (ARS-TST). It counts as in vivo. To be noted: male ICR mice, intraperitoneal, tested 10 minutes after treatment. The protocol:
Male ICR mice (23±3 g) were purchased from BioLASCO (Taipei, Taiwan) at 4-5 weeks of age and allowed 5-7 days to acclimate to the animal research facility at Pharmacology Discovery Services (Taipei, Taiwan). Mice were housed in groups of 10 in a large cage (47×25×15 cm) on a 12-hour light cycle (lights on: 0700) and provided ad libitum food and water except during acute restraint stress and tail-suspension testing. Temperature was maintained at 20-24° C., and all rooms (colony and testing rooms) had similar lighting intensity. All aspects of this work including housing, experimentation, and animal disposal were performed in accordance with the “Guide for the Care and Use of Laboratory Animals: Eighth Edition” (The National Academies Press, Washington, DC, 2011) in a facility accredited by the Association for Assessment and Accreditation of Laboratory Animal Care. […]
Tail Suspension Test (TST) Procedure: Mice were individually suspended on the edge of a shelf, 58 cm above a tabletop, using adhesive tape placed approximately 1 cm from the tip of the tail, for a total duration of 7 minutes. Using a stopwatch, the experimenters blinded to treatment groups recorded the duration of immobility (defined as hanging passively and motionless) during the 5 minutes spanning from 2-7 minutes. The data from 0-2 minutes was not recorded. […]

In the case of `CCN(C)CCc1c[nH]c2c(C)cc(OC)cc12` [Example P-51, N-ethyl-2-(5-methoxy-7-methyl-1H-indol-3-yl)-N-methylethan-1-amine], the immobility time result is given as “decrease immobility time”.
For `CCN(C)CCc1c[nH]c2ccc(OC)c(C)c12` [Example P-37, N-ethyl-2-(5-methoxy-4-methyl-1H-indol-3-yl)-N-methylethan-1-amine], the immobility time entry is “decrease immobility time”.
